In PubChem BioAssay AID562 (University of Pittsburgh Molecular Library Screening Center, 2006):
Calls of active or inactive are those of the source. No rule for the calls is given here.

target: Dual specificity protein phosphatase 1 (Homo sapiens) (UniProt P28562); test: DUSP1 inhibition in catalase presence – biochemical, catalase added, active/probe assessment, dose response (AID 562); details: recombinant MKP-1 phosphatase, fluorescence, with catalase
Sequence (P28562 whole entry, looked up): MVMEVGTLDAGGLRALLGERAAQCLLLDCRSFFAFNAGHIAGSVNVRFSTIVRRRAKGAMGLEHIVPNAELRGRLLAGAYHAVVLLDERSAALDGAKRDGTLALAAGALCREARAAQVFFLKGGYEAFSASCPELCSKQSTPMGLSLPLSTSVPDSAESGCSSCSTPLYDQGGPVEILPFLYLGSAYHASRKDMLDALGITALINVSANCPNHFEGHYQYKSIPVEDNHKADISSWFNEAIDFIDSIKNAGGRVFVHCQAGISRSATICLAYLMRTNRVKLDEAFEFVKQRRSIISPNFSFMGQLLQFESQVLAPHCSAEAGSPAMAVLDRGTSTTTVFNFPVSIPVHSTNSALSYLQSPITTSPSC

SMILES | IC50
[O-]/[N+](=C\c1ccc(OC(F)F)cc1)c1ccccc1 | > 50 µM (inactive)
COc1ccc(Cn2c(C)nc3c(c2=O)c2nc4ccccc4nc2n3Cc2ccco2)cc1 | 22 µM
CCOc1ccc2noc3c2c1C(=O)c1ccccc1-3 | 30.2 µM
CC(C)(C)N1C(=O)Cc2c1nc(N)c1c(N)nc(N3CCCCC3CO)c(C#N)c21 (stereo unspecified) | > 50 µM (inactive)
CCCCn1c(NC(=O)c2ccccc2)c(C#N)c2nc3ccccc3nc21 | 32.4 µM
N#Cc1c(N)sc(=S)c2c1CCN(Cc1ccccc1)C2 | > 50 µM (inactive)
Cc1cc(C)n2c(SCC(=O)N3CCN(S(=O)(=O)c4ccc(Cl)cc4)CC3)nnc2n1 | 49.9 µM
Cc1c(N=c2c(=O)c3ccccc3c2=O)c(=O)n(-c2ccccc2)n1C | > 50 µM (inactive)
O=C1c2ccccc2-c2onc3ccc(NCCCn4ccnc4)c1c23 | 35.2 µM
COc1ccc(-n2c(NC(=O)c3ccco3)c(C#N)c3nc4ccccc4nc32)cc1 | > 50 µM (inactive)
FC(F)(F)c1ccc(N2CCOCC2)c(Nc2nc3ccccc3n3cnnc23)c1 | > 50 µM (inactive)
O=C(NC1(O)C(=O)c2ccccc2C1=O)c1ccccc1 | > 50 µM (inactive)
CCCCCC#CCC#CCC#CCC#CCCCC(=O)O | 13.1 µM
CC(C)Sc1nc2sc3c(c2c2nnc(SCC(=O)NCc4ccco4)n12)CCCC3 | 22.7 µM
Cc1cc(NC(=O)c2ccc(S(=O)(=O)N3CCCC3)cc2)nc2c1c(=O)oc1ccccc12 | 26.1 µM
Nc1nc2c(s1)CCc1c-2cnn1-c1ccccc1 | > 50 µM (inactive)
CCn1nc(-c2ccccc2)nc2c(=O)n(C)c(=O)nc1-2 | > 50 µM (inactive)
COc1cc(/C=C(/C#N)c2ccc(F)cc2)ccc1OCc1ccc(C(=O)O)o1 | > 50 µM (inactive)
COC(=O)c1ccccc1NC(=O)CN1C(=O)C2CCCN2c2ncc(Cl)cc21 (stereo unspecified) | > 50 µM (inactive)

SMILES | IC50
Cc1ccc(C)n1-c1cccc(C(=O)O)c1 | 16.9 µM
CCn1nc(-c2cccs2)nc2c(=O)n(C)c(=O)nc1-2 | > 50 µM (inactive)
Cc1cccc(N2CCN(C(=O)Cc3c(C(=O)O)[nH]c4ccc(Cl)cc34)CC2)c1C | 46.8 µM
O=C1C=Cc2ccccc2C1=O | 22.5 µM
CCOC(=O)c1ccc2c(c1)C1C=CCC1C(C(=O)O)N2 (stereo unspecified) | 32.7 µM
CCCSc1nnc(NC(=O)c2sc3nc(-c4cccs4)ccc3c2N)s1 | 25.7 µM
[O-]/[N+](=C\c1ccncc1)c1ccccc1 | 46.6 µM
O=C(Nc1ccc2nc(-c3ccco3)c(-c3ccco3)nc2c1)N1CCCCCC1 | 24.1 µM
O=C(OC1CCCCC1)c1ccc2c(c1)C1C=CCC1C(C(=O)O)N2 (stereo unspecified) | 17.5 µM
CC(=O)[C@@H]1[C@@H]2C(=O)N(c3ccc(F)c(Cl)c3)C(=O)[C@@H]2C2c3ccccc3C=CN21 (stereo partly specified) | > 50 µM (inactive)
CCn1c(SCC(=O)Nc2ccc3c(c2)c2ccccc2n3CC)nnc1-c1ccco1 | 21.1 µM
CCCCCNC(=O)c1ccc2c(=O)[nH]c3c(C(=O)NCC4CCCO4)sc(=S)n3c2c1 (stereo unspecified) | 36.7 µM
COc1ccc(Br)cc1/C=c1\sc2nc(-c3ccco3)nn2c1=O | 17.2 µM
N#Cc1c(N2CCCC2)nc(N)c2c(N)nc(N3CCCC3)cc12 | > 50 µM (inactive)
CCc1ccc(NC(=O)CSc2nc3ccccc3c(=O)n2CCN2CCOCC2)cc1 | > 50 µM (inactive)
CCOc1cc(/C=C(/C#N)c2ccc(F)cc2)ccc1OCc1ccc(C(=O)O)o1 | 41.8 µM
Cc1ccc(-c2csc(NC(=O)c3ccno3)n2)cc1 | 49.8 µM
Cc1cccc(NC(=O)c2cc(NC(=O)C3CCCCC3C(=O)O)ccc2N2CCCCC2)c1 (stereo unspecified) | > 50 µM (inactive)
Cc1nc2cc(-c3cccc(F)c3)nn2c(C)c1CCC(=O)N1CCC2(CC1)OCCO2 | > 50 µM (inactive)

SMILES | IC50
O=C1Nc2ccccc2SC(c2ccccc2)C1O (stereo unspecified) | 35.5 µM
CCCCn1c(SCC(=O)c2ccc(OC)cc2OC)nc2cc(S(N)(=O)=O)ccc21 | 42.1 µM
O=C1C=C(NCc2ccc(Cl)c(Cl)c2)CC1 | > 50 µM (inactive)
CC1=C(/C=C/C(C)=C/C=C/C(C)=C/C(=O)O)C(C)(C)CCC1 | 48.6 µM
N#Cc1c(NC(=O)c2ccc(Br)o2)n(-c2ccccc2)c2nc3ccccc3nc12 | > 50 µM (inactive)
CCCCNC(=O)c1c(N)n(CCCOC)c2nc3ccccc3nc12 | > 50 µM (inactive)
Cc1ccc(/C=C/C2=Cc3c(sc(NC(=O)CSc4n[nH]c(N)n4)c3C#N)C(C)(C)C2)o1 | 19.8 µM
COc1ccc(-c2cc3nc(C4CCN(C(=O)OC(C)(C)C)CC4)c(C(=O)O)cn3n2)cc1 | 36.3 µM
Cn1ncnc2c(=O)n(C)c(=O)nc1-2 | > 50 µM (inactive)
O=C(Nc1ccccc1)c1ccc2nc(-c3ccco3)c(-c3ccco3)nc2c1 | 32 µM
Nc1c(N2CCCC2)cc(Cl)c2nonc12 | > 50 µM (inactive)
[O-]/[N+](=C/c1ccc(F)cc1)c1ccccc1 | > 50 µM (inactive)
CC(C)Cn1c(N)c(C(=O)COC(=O)c2cc(-c3ccco3)nc3ccccc23)c(=O)n(C)c1=O | 25.5 µM
Cc1nc2c(C(=O)NCCC3=CCCCC3)c[nH]n2c(=O)c1Cl | 49.9 µM
O=C(c1cccs1)c1no[n+]([O-])c1C(=O)c1cccs1 | 6.96 µM
COc1ccc2noc3c2c1C(=O)c1ccccc1-3 | 14.3 µM
COCCCn1c(N)c(C(=O)NCCC(C)C)c2nc3ccccc3nc21 | > 50 µM (inactive)
CCOc1ccc(-c2cc3nc(C4CCN(C(=O)OC(C)(C)C)CC4)c(C(=O)O)cn3n2)cc1 | 27.7 µM
